The text below walks through data of patent US20240270762A1, “PENICILLIN-BINDING PROTEIN INHIBITORS” (priority 2021, published 2024).

In brackets after ≈: the same amount, converted by molar mass. Like-named read-outs stand apart in the source and are kept apart here.

Experiment [1] addresses T1, PBP1a from Acinetobacter baumannii (ATCC 19606) (Acinetobacter baumannii, UniProt A0ABX6CK30).
T1 sequence (A0ABX6CK30 1-851): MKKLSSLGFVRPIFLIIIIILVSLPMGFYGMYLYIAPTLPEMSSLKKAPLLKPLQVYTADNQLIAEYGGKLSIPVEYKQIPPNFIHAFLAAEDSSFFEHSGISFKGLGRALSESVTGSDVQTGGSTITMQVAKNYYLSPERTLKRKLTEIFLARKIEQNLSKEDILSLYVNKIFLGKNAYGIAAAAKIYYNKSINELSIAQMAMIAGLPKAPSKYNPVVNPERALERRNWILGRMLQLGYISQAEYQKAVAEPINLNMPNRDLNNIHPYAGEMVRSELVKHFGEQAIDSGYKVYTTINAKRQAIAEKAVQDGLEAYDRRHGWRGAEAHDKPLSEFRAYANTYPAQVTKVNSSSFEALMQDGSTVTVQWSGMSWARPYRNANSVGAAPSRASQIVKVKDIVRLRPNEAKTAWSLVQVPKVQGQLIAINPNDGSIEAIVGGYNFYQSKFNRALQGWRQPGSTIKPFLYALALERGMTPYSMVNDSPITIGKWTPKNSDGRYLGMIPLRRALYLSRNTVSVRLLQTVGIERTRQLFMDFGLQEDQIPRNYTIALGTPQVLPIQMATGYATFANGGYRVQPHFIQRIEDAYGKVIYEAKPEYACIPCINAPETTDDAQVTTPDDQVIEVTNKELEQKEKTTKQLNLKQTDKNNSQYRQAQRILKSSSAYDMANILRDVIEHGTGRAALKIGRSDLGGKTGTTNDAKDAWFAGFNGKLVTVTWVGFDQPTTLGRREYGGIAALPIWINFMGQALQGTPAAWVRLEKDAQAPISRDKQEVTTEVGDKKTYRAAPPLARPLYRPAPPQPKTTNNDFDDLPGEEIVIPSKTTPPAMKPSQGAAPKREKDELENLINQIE
In words: Bocillin-FL fluorescence polarization competition binding, A. baumannii PBP1a. The following applies: fluorescence polarization competition binding assay using Bocillin-FL; read-out: A. baumannii PBP1a Potency. The method, boiled down: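 Purified PBP was preincubated with inhibitor (E. coli PBP3 1.5 μM, 30 min; P. aeruginosa PBP3 0.75 μM, A. baumannii PBP3 0.2 μM and PBP1a 1 μM, 15 min), then Bocillin-FL (0.1 μM; 0.05 μM for PBP1a) added and FP read up to 60 min. EC50 = 50% loss of bound probe.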
For orientation: In fluorescence polarisation assays a small probe gives low polarisation when free and higher when bound to something large.

The next experiment deals with A. baumannii CDC-0036. In words: microbe, parasite or virus in culture. In kind it is cell-based. As to conditions: Acinetobacter baumannii.
The subject of the next experiment is P. aeruginosa CDC-0054. In words: microbe, parasite or virus in culture. The following applies: Pseudomonas aeruginosa, CDC0054, read-out: Minimum inhibitory concentration, P. aeruginosa CDC-0054. It is filed as cell-based.
The next experiment has as its target A. baumannii PBP2 (Acinetobacter baumannii, UniProt D0C8Z9). In words: Bocillin-FL competition binding via gel filtration, A. baumannii PBP2. The method, boiled down:
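Competitive equilibrium binding with Bocillin-FL reporter: PBP pre-incubated with inhibitor dilutions, Bocillin-FL added, 15 min incubation. Labelled enzyme isolated by size-exclusion spin plates, fluorescence measured; EC50 obtained by fitting bound fraction against inhibitor concentration with a Hill-coefficient model.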
(In general: In gel filtration, larger molecules generally elute earlier.)

Another experiment has as its system P. aeruginosa CDC-0110. The experiment in a line: microbe, parasite or virus in culture. In kind it is cell-based. The following applies: Pseudomonas aeruginosa, CDC0110, read-out: Minimum inhibitory concentration, P. aeruginosa CDC-0110.
[2] abbreviates: CDC0036, read-out: MIC, A. baumannii CDC-0036.
Where [3] appears, read: CDC0036, read-out: Minimum inhibitory concentration (MIC), A. baumannii CDC-0036.

A. baumannii PBP2, sequence (D0C8Z9 whole entry): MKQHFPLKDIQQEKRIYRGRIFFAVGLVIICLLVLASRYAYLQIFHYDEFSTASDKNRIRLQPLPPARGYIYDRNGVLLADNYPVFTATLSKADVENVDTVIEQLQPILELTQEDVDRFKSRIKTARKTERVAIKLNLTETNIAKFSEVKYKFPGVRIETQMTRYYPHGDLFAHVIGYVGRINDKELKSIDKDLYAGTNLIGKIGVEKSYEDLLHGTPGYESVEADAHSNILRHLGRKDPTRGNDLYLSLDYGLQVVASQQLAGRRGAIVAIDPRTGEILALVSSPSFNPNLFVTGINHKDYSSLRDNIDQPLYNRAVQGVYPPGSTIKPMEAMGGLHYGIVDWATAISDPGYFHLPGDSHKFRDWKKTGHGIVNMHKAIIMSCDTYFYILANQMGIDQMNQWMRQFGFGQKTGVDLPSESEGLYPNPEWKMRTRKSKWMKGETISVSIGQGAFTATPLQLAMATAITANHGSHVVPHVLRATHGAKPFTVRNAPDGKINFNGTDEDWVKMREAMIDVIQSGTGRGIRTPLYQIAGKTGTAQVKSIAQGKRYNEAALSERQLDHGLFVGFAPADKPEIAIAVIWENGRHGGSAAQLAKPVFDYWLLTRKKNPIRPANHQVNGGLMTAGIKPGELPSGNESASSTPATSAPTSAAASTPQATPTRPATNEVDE

Usually EC50 stands for the concentration giving half of the maximal effect. Regarding `O=C(O)c1c(F)ccc2c1OB(O)[C@@H](NC(=O)C(NC(=O)N1CCN(C3CCN(C(=O)Nc4cc(O)ccc4F)CC3)C(=O)C1=O)c1cc(F)c(O)c(O)c1Cl)C2` (stereo partly drawn) [Example 479, (3R)-3-(2-(2-chloro-5-fluoro-3,4-dihydroxyphenyl)-2-(4-(1-((2-fluoro-5-hydroxyphenyl)carbamoyl)piperidin-4-yl)-2,3-dioxopiperazine-1-carboxamido)acetamido)-7-fluoro-2-hydroxy-3,4-dihydro-2H-benzo[e][1,2]oxaborinine-8-carboxylic acid], the IC50 in experiment [1] was above 250 µM. Moreover, the MIC with A. baumannii CDC-0036 (setting [2]) and in the experiment with P. aeruginosa CDC-0054 was below 1 µg/mL throughout. Besides, at A. baumannii PBP2, the EC50 was in the range of 10 to 50 µM.
Regarding `O=C(O)c1c(F)ccc2c1OB(O)[C@@H](NC(=O)C(NC(=O)N1CCN(C3CCN(C(=O)Nc4ccc(F)c(O)c4)CC3)C(=O)C1=O)c1cc(F)c(O)c(O)c1Cl)C2` (stereo partly drawn) [Example 480, (3R)-3-(2-(2-chloro-5-fluoro-3,4-dihydroxyphenyl)-2-(4-(1-((4-fluoro-3-hydroxyphenyl)carbamoyl)piperidin-4-yl)-2,3-dioxopiperazine-1-carboxamido)acetamido)-7-fluoro-2-hydroxy-3,4-dihydro-2H-benzo[e][1,2]oxaborinine-8-carboxylic acid], the IC50 in experiment [1] is above 250 µM. Also, the MIC in the experiment on A. baumannii CDC-0036 (setting [2]) is 2 to 4 µg/mL (≈ 2.44 to 4.88 µM); with P. aeruginosa CDC-0054 it was below 1 µg/mL. Further, the half-maximal effective concentration (EC50) at A. baumannii PBP2 fell in the range of 10 to 50 µM.
Turning to `O=C(O)c1c(F)ccc2c1OB(O)[C@@H](NC(=O)C(NC(=O)N1CCN(C3CCN(C(=O)Nc4cc(O)cc(F)c4)CC3)C(=O)C1=O)c1cc(F)c(O)c(O)c1Cl)C2` (stereo partly drawn) [Example 481, (3R)-3-(2-(2-chloro-5-fluoro-3,4-dihydroxyphenyl)-2-(4-(1-((3-fluoro-5-hydroxyphenyl)carbamoyl)piperidin-4-yl)-2,3-dioxopiperazine-1-carboxamido)acetamido)-7-fluoro-2-hydroxy-3,4-dihydro-2H-benzo[e][1,2]oxaborinine-8-carboxylic acid], the IC50 in experiment [1] is above 250 µM. In addition, the MIC in the experiment on A. baumannii CDC-0036 (setting [2]) and in the experiment with P. aeruginosa CDC-0054 was below 1 µg/mL throughout. At A. baumannii PBP2, this molecule displayed an EC50 below 10 µM.
Turning to `O=C(O)c1c(F)ccc2c1OB(O)[C@@H](NC(=O)[C@H](NC(=O)N1CCN(C3CCN(C(=O)Nc4cccc(O)c4Cl)CC3)C(=O)C1=O)c1cc(F)c(O)c(O)c1Cl)C2` [Example 482, (R)-3-((R)-2-(4-(1-((2-chloro-3-hydroxyphenyl)carbamoyl)piperidin-4-yl)-2,3-dioxopiperazine-1-carboxamido)-2-(2-chloro-5-fluoro-3,4-dihydroxyphenyl)acetamido)-7-fluoro-2-hydroxy-3,4-dihydro-2H-benzo[e][1,2]oxaborinine-8-carboxylic acid], in experiment [1], the IC50 was above 250 µM. In addition, the MIC in the experiment with A. baumannii CDC-0036 (setting [2]) and with P. aeruginosa CDC-0054 was below 1 µg/mL in each case. On A. baumannii PBP2, this molecule came in with an EC50 of 10 to 50 µM.
For `O=C(O)c1c(F)ccc2c1OB(O)[C@@H](NC(=O)C(NC(=O)N1CCN(C3CCN(C(=O)Nc4cc(O)ccc4Cl)CC3)C(=O)C1=O)c1cc(F)c(O)c(O)c1Cl)C2` (stereo partly drawn) [Example 483, (3R)-3-(2-(2-chloro-5-fluoro-3,4-dihydroxyphenyl)-2-(4-(1-((2-chloro-5-hydroxyphenyl)carbamoyl)piperidin-4-yl)-2,3-dioxopiperazine-1-carboxamido)acetamido)-7-fluoro-2-hydroxy-3,4-dihydro-2H-benzo[e][1,2]oxaborinine-8-carboxylic acid], the IC50 in experiment [1] is above 250 µM. The MIC with A. baumannii CDC-0036 (setting [2]) and with P. aeruginosa CDC-0054 was 2 to 4 µg/mL (≈ 2.39 to 4.79 µM) each time. Besides, the EC50 at A. baumannii PBP2 is 10 to 50 µM.
For `O=C(O)c1c(F)ccc2c1OB(O)[C@@H](NC(=O)C(NC(=O)N1CCN(C3CCN(C(=O)Nc4cc(O)cc(Cl)c4)CC3)C(=O)C1=O)c1cc(F)c(O)c(O)c1Cl)C2` (stereo partly drawn) [Example 484, (3R)-3-(2-(2-chloro-5-fluoro-3,4-dihydroxyphenyl)-2-(4-(1-((3-chloro-5-hydroxyphenyl)carbamoyl)piperidin-4-yl)-2,3-dioxopiperazine-1-carboxamido)acetamido)-7-fluoro-2-hydroxy-3,4-dihydro-2H-benzo[e][1,2]oxaborinine-8-carboxylic acid], the IC50 in experiment [1] is above 250 µM. The MIC with A. baumannii CDC-0036 (setting [2]) and in the experiment on P. aeruginosa CDC-0054 was 2 to 4 µg/mL (≈ 2.39 to 4.79 µM) in each case. This molecule also registered a concentration giving a half-maximal response (EC50) on A. baumannii PBP2 below 10 µM.
Consider `O=C(O)c1c(F)ccc2c1OB(O)[C@@H](NC(=O)C(NC(=O)N1CCN(C3CCN(C(=O)Nc4c(F)ccc(O)c4F)CC3)C(=O)C1=O)c1cc(F)c(O)c(O)c1Cl)C2` (stereo partly drawn) [Example 487, (3R)-3-(2-(2-chloro-5-fluoro-3,4-dihydroxyphenyl)-2-(4-(1-((2,6-difluoro-3-hydroxyphenyl)carbamoyl)piperidin-4-yl)-2,3-dioxopiperazine-1-carboxamido)acetamido)-7-fluoro-2-hydroxy-3,4-dihydro-2H-benzo[e][1,2]oxaborinine-8-carboxylic acid], for which the MIC in the experiment on A. baumannii CDC-0036 (setting [3]), in the experiment on P. aeruginosa CDC-0110 and with P. aeruginosa CDC-0054 was below 1 µg/mL throughout. Moreover, the EC50 on A. baumannii PBP2 was below 10 µM.
As to `O=C(O)c1c(F)ccc2c1OB(O)[C@@H](NC(=O)C(NC(=O)N1CCN(C3CCN(C(=O)Nc4cc(O)c(F)c(F)c4)CC3)C(=O)C1=O)c1cc(F)c(O)c(O)c1Cl)C2` (stereo partly drawn) [Example 488, (3R)-3-(2-(2-chloro-5-fluoro-3,4-dihydroxyphenyl)-2-(4-(1-((3,4-difluoro-5-hydroxyphenyl)carbamoyl)piperidin-4-yl)-2,3-dioxopiperazine-1-carboxamido)acetamido)-7-fluoro-2-hydroxy-3,4-dihydro-2H-benzo[e][1,2]oxaborinine-8-carboxylic acid], the MIC in the experiment with A. baumannii CDC-0036 (setting [3]) is 2 to 4 µg/mL (≈ 2.39 to 4.78 µM); with P. aeruginosa CDC-0110 it was below 1 µg/mL; in the experiment on P. aeruginosa CDC-0054, below 1 µg/mL. Also, the EC50 on A. baumannii PBP2 is 10 to 50 µM.
As to `O=C(O)c1c(F)ccc2c1OB(O)[C@@H](NC(=O)C(NC(=O)N1CCN(C3CCN(C(=O)Nc4ccc(Cl)c(O)c4F)CC3)C(=O)C1=O)c1cc(F)c(O)c(O)c1Cl)C2` (stereo partly drawn) [Example 489, (3R)-3-(2-(4-(1-((4-chloro-2-fluoro-3-hydroxyphenyl)carbamoyl)piperidin-4-yl)-2,3-dioxopiperazine-1-carboxamido)-2-(2-chloro-5-fluoro-3,4-dihydroxyphenyl)acetamido)-7-fluoro-2-hydroxy-3,4-dihydro-2H-benzo[e][1,2]oxaborinine-8-carboxylic acid], the MIC is 2 to 4 µg/mL (≈ 2.34 to 4.69 µM) with A. baumannii CDC-0036 (setting [3]), 2 to 4 µg/mL (≈ 2.34 to 4.69 µM) in the experiment on P. aeruginosa CDC-0110 and below 1 µg/mL with P. aeruginosa CDC-0054. For the same molecule, at A. baumannii PBP2, the EC50 is below 10 µM.
`O=C(O)c1c(F)ccc2c1OB(O)[C@@H](NC(=O)C(NC(=O)N1CCN(C3CCN(C(=O)Nc4cc(O)c(F)cc4Cl)CC3)C(=O)C1=O)c1cc(F)c(O)c(O)c1Cl)C2` (stereo partly drawn) [Example 490, (3R)-3-(2-(4-(1-((2-chloro-4-fluoro-5-hydroxyphenyl)carbamoyl)piperidin-4-yl)-2,3-dioxopiperazine-1-carboxamido)-2-(2-chloro-5-fluoro-3,4-dihydroxyphenyl)acetamido)-7-fluoro-2-hydroxy-3,4-dihydro-2H-benzo[e][1,2]oxaborinine-8-carboxylic acid]: the MIC in the experiment on A. baumannii CDC-0036 (setting [3]) is 2 to 4 µg/mL (≈ 2.34 to 4.69 µM); with P. aeruginosa CDC-0110, 2 to 4 µg/mL (≈ 2.34 to 4.69 µM); in the experiment with P. aeruginosa CDC-0054, 8 to 16 µg/mL (≈ 9.37 to 18.7 µM). Besides, the concentration giving a half-maximal response (EC50) on A. baumannii PBP2 was in the range of 10 to 50 µM.
For `O=C(O)c1c(F)ccc2c1OB(O)[C@@H](NC(=O)[C@H](NC(=O)N1CCN(C3CCN(C(=O)Nc4cc(F)c(F)c(O)c4F)CC3)C(=O)C1=O)c1cc(F)c(O)c(O)c1Cl)C2` [Example 491, (R)-3-((R)-2-(2-chloro-5-fluoro-3,4-dihydroxyphenyl)-2-(2,3-dioxo-4-(1-((2,4,5-trifluoro-3-hydroxyphenyl)carbamoyl)piperidin-4-yl)piperazine-1-carboxamido)acetamido)-7-fluoro-2-hydroxy-3,4-dihydro-2H-benzo[e][1,2]oxaborinine-8-carboxylic acid], the MIC is 2 to 4 µg/mL (≈ 2.34 to 4.68 µM) in the experiment with A. baumannii CDC-0036 (setting [3]), below 1 µg/mL with P. aeruginosa CDC-0110 and below 1 µg/mL in the experiment with P. aeruginosa CDC-0054. For the same molecule, on A. baumannii PBP2, the EC50 is below 10 µM.
